Results as given in patent publication US4497822A, “Insecticidal N-benzoyl-N'-phenyl-N'-(R-thio)ureas” (Shell Oil Company, priority 1982, dated 1985).
In brackets after ≈: the same amount, converted by molar mass.

Legend:
Solubility in xylene = format: physicochemical; settings: organic solvent or mixture, o-xylene, 20° C., dark, liquid chromatography
Description: To illustrate the improved solubility in a common formulation solvent, xylene, of the compounds according to the invention, solubility tests were carried out with certain of these compounds and closely related compounds known from the literature. The test method is described below.
The compound (200 mg) was equilibrated with solvent (0.5 ml of o-xylene at 20° C. in the dark for 48 hours). After equilibration, the supernatant liquors were removed, centrifuged and then filtered. An aliquot portion of this (0.1 ml) was made up to volume (1 to 100 ml) with acetonitrile and then analyzed against standards by means of liquid chromatography.

[1] = system: Spodoptera littoralis larvae; experiment: Insecticidal activity, sprayed diet (Test 1 (a)), toxicity vs parathion; format: in vivo, Egyptian cotton leafworm (Spodoptera littoralis); settings: second instar larvae; mortality 7 days after spraying; 50% mortality basis; standard parathion = 100
Description: (§1) The insecticidal and ovicidal activities of the compounds of the invention were assessed employing the pests, Egyptian cotton leafworm (Spodoptera littoralis, S.l.), mosquito (Aedes aegypti, A.a.) and eggs of Spodoptera littoralis, S.l.ov.
(§2) The test methods used for each species are described below. In each case the tests were conducted under normal insectary conditions (28° C.[…]; fluctuating light and humidity).
(§3) In each instance, the toxicity of the compound of the invention was compared to that of a standard pesticide (parathion), its relative toxicity then being expressed in terms of the relationship between the amount of compound of the invention and the amount of the standard pesticide required to produce the same percentage (50%) of mortality in the test insect. By assigning the standard pesticide an arbitrary rating of 100, the toxicities of the compounds of the invention were expressed in terms of the toxicity indices, which compares the toxicity of the compounds of the invention with that of the standard pesticide.
(a) Spodoptera littoralis--A solution or suspension of the test compound was made up over a range of concentrations in 10% acetone/water containing 0.025% Triton X100 (as surfactant). These solutions were sprayed using a logarithmic spraying machine onto petri dishes containing a nutritious diet on which the Spodoptera littoralis larvae had been reared. When the spray deposit had dried each dish was infested with 10 second instar larvae. Mortality assessments were made 7 days after spraying.

Aedes aegypti larvae = experiment: Insecticidal activity, larvae in treated water (Test 1 (b)), toxicity vs parathion; format: in vivo, mosquito (Aedes aegypti); parameters: key: Toxicity Index: parathion = 100; 200 = twice as active, 50 = half; settings: early fourth instar larvae; final mortality when all larvae emerged as adults or died; 50% mortality basis; standard parathion = 100
Description: as §1, §2
as §3, with “pesticide. That is to say, a test compound having a Toxicity Index of 50 would be half as active, while one having a Toxicity Index of 200 would be twice as active as the standard pesticide.” for “pesticide.”
(b) Aedes aegypti--Several solutions of the test compound of varying concentration were prepared in acetone. 100 microliter quantities were added to 100 milliliters of tap water, the acetone being allowed to evaporate off. Ten early fourth instar larvae were placed in the test solution; after 48 hours the (surviving) larvae were fed with animal feed pellets, and the final percentage mortality assessed when all the larvae had either pupated and emerged as adults or died.

[2] = system: eggs of Spodoptera littoralis; experiment: Ovicidal activity, sprayed eggs (Test 1 (c)), toxicity vs parathion; format: in vivo, Egyptian cotton leafworm (Spodoptera littoralis); settings: eggs less than 24 hours old; approximately five days; 50% mortality basis; standard parathion = 100
Description: as §1, §2
as §3, with “pesticide. That is to say, a test compound having a Toxicity Index of 50 would be half as active, while one having a Toxicity Index of 200 would be twice as active as the standard pesticide.” for “pesticide.”
(c) Spodoptera littoralis (ovicide)--Solutions as described in (a) above were prepared. Eggs less than 24 hours old were obtained as follows. Adult Spodoptera littoralis were held in large plastic cylinders containing blotting paper on which the moths laid their batches of eggs. Egg batches containing approximately 60-70 eggs were cut from the blotting paper with a 1 cm surround. These were placed, eggs uppermost, on filter paper in the deeper half of 5 cm disposable petri dishes and each batch of eggs was then sprayed with a different test solution or the control solution. The dishes were covered until the control eggs had hatched, approximately five days. The percentage ovicidal mortality was then calculated.

`O=C(NC(=O)c1c(F)cccc1F)Nc1ccc(Oc2ccc(C(F)(F)F)cc2Cl)cc1` [1-(4-(4-trifluoromethyl-2-chlorophenoxy)phenyl)-3-(2,6-difluorobenzoyl)urea, reference compound] showed a solubility at 48 h (Solubility in xylene) of 5700 µg/mL (≈ 12.1 mM).
Work on `O=C(NC(=O)c1ccccc1Cl)Nc1ccc(OC(F)(F)F)cc1` [1-(4-trifluoromethoxy-phenyl)-3-(2-chloro-benzoyl)-urea, reference compound] yielded a solubility at 48 h (Solubility in xylene) of 2300 µg/mL (≈ 6.41 mM).
For `O=C(NC(=O)N(Sc1ccccc1[N+](=O)[O-])c1ccc(OC(F)(F)F)cc1)c1ccccc1Cl` [Example 1, 2-Chloro-N-[[[4-(trifluoromethoxy)phenyl]-N-[(2-nitrophenyl)thio]amino]carbonyl]benzamide], the “Toxicity Index S.l.” value [1] was 750, the “Toxicity Index A.a.” value (Aedes aegypti larvae) was 220 and the solubility at 48 h (Solubility in xylene) was 3700 µg/mL (≈ 7.23 mM). The “Toxicity Index S.l.ov.” value [2] was 210.
For `O=C(NC(=O)N(Sc1ccccc1[N+](=O)[O-])c1ccc(Oc2ccc(C(F)(F)F)cc2Cl)cc1)c1c(F)cccc1F` [Example 3], the “Toxicity Index S.l.” value [1] was 4500, the solubility at 48 h (Solubility in xylene) was 18800 µg/mL (≈ 30.1 mM) and the “Toxicity Index S.l.ov.” value [2] was 0.
With `O=C(NC(=O)N(Sc1ccc(Br)cc1)c1ccc(C(F)(F)F)cc1)c1c(F)cccc1F` [Example 19] the “Toxicity Index S.l.” value [1] was 240, the “Toxicity Index A.a.” value (Aedes aegypti larvae) was 10 and the “Toxicity Index S.l.ov.” value [2] was 1500.
With `O=C(NC(=O)N(Sc1ccccc1[N+](=O)[O-])c1ccc(C(F)(F)F)cc1)c1c(F)cccc1F` [Example 20] the “Toxicity Index S.l.” value [1] was 160, the “Toxicity Index A.a.” value (Aedes aegypti larvae) was 180 and the “Toxicity Index S.l.ov.” value [2] was 1800.
In the case of `O=C(NC(=O)N(Sc1ccc([N+](=O)[O-])cc1[N+](=O)[O-])c1ccc(C(F)(F)F)cc1)c1c(F)cccc1F` [Example 22], the “Toxicity Index S.l.” value [1] was 220, the “Toxicity Index A.a.” value (Aedes aegypti larvae) was 51 and the “Toxicity Index S.l.ov.” value [2] was 2300.
In the case of `Cc1ccc(SN(C(=O)NC(=O)c2ccccc2Cl)c2ccc(OC(F)(F)F)cc2)cc1` [Example 23], the “Toxicity Index S.l.” value [1] was 140, the “Toxicity Index A.a.” value (Aedes aegypti larvae) was 145 and the “Toxicity Index S.l.ov.” value [2] was 1500.
For `O=C(NC(=O)N(Sc1ccc([N+](=O)[O-])cc1)c1ccc(OC(F)(F)F)cc1)c1ccccc1Cl` [Example 24], the “Toxicity Index S.l.” value [1] was 54, the “Toxicity Index A.a.” value (Aedes aegypti larvae) was 31 and the “Toxicity Index S.l.ov.” value [2] was 11.
For `O=C(NC(=O)N(SC(Cl)(Cl)Cl)c1ccc(OC(F)(F)F)cc1)c1ccccc1Cl` [Example 25], the “Toxicity Index S.l.” value [1] was 140, the “Toxicity Index A.a.” value (Aedes aegypti larvae) was 28 and the “Toxicity Index S.l.ov.” value [2] was 1300.
For `CC(C)(C)c1ccc(SN(C(=O)NC(=O)c2c(F)cccc2F)c2ccc(C(F)(F)F)cc2)cc1` [Example 26], the “Toxicity Index S.l.” value [1] was 580, the “Toxicity Index A.a.” value (Aedes aegypti larvae) was 82 and the “Toxicity Index S.l.ov.” value [2] was 8.
With `O=C(NC(=O)N(Sc1ccc(Cl)cc1)c1ccc(C(F)(F)F)cc1)c1c(F)cccc1F` [Example 27] the “Toxicity Index S.l.” value [1] was 220, the “Toxicity Index A.a.” value (Aedes aegypti larvae) was 21 and the “Toxicity Index S.l.ov.” value [2] was 2200.
With `O=C(NC(=O)N(Sc1ccc([N+](=O)[O-])cc1)c1ccc(Cl)cc1)c1c(F)cccc1F` [Example 28] the “Toxicity Index S.l.” value [1] was 54, the “Toxicity Index A.a.” value (Aedes aegypti larvae) was 6 and the “Toxicity Index S.l.ov.” value [2] was 720.
With `O=C(NC(=O)N(Sc1ccccc1)c1ccc(Oc2ccc(C(F)(F)F)cc2Cl)cc1)c1ccccc1Cl` [Example 29] the “Toxicity Index S.l.” value [1] was 930, the “Toxicity Index A.a.” value (Aedes aegypti larvae) was 330 and the “Toxicity Index S.l.ov.” value [2] was 0.
For `O=C(NC(=O)N(Sc1ccc(Cl)cc1)c1ccc(Oc2ccc(C(F)(F)F)cc2Cl)cc1)c1ccccc1Cl` [Example 30], the “Toxicity Index S.l.” value [1] was 670, the “Toxicity Index A.a.” value (Aedes aegypti larvae) was 220 and the “Toxicity Index S.l.ov.” value [2] was 0.
With `Cc1ccccc1SN(C(=O)NC(=O)c1ccccc1Cl)c1ccc(Oc2ccc(C(F)(F)F)cc2Cl)cc1` [Example 31] the “Toxicity Index S.l.” value [1] was 960, the “Toxicity Index A.a.” value (Aedes aegypti larvae) was 240 and the “Toxicity Index S.l.ov.” value [2] was 0.
In the case of `CC(C)c1ccccc1SN(C(=O)NC(=O)c1ccccc1Cl)c1ccc(OC(F)(F)F)cc1` [Example 32], the “Toxicity Index S.l.” value [1] was 88, the “Toxicity Index A.a.” value (Aedes aegypti larvae) was 28 and the “Toxicity Index S.l.ov.” value [2] was 2000.
For `O=C(NC(=O)N(Sc1ccc(Cl)cc1)c1ccc(OC(F)(F)F)cc1)c1ccccc1Cl` [Example 33], the “Toxicity Index S.l.” value [1] was 57, the “Toxicity Index A.a.” value (Aedes aegypti larvae) was 44 and the “Toxicity Index S.l.ov.” value [2] was 1300.
For `Cc1ccc(SN(C(=O)NC(=O)c2ccccc2Cl)c2ccc(Oc3ccc(C(F)(F)F)cc3Cl)cc2)cc1` [Example 34], the “Toxicity Index S.l.” value [1] was 1200, the “Toxicity Index A.a.” value (Aedes aegypti larvae) was 130 and the “Toxicity Index S.l.ov.” value [2] was 0.
In the case of `O=C(NC(=O)N(Sc1ccccc1[N+](=O)[O-])c1ccc(Oc2ccc(C(F)(F)F)cc2Cl)cc1)c1ccccc1Cl` [Example 35], the “Toxicity Index S.l.” value [1] was 2500, the “Toxicity Index A.a.” value (Aedes aegypti larvae) was 82 and the “Toxicity Index S.l.ov.” value [2] was 0.
With `CC(C)(C)c1ccc(SN(C(=O)NC(=O)c2c(F)cccc2F)c2ccc(Cl)cc2)cc1` [Example 36] the “Toxicity Index S.l.” value [1] was 42, the “Toxicity Index A.a.” value (Aedes aegypti larvae) was 22 and the “Toxicity Index S.l.ov.” value [2] was 0.
For `O=C(NC(=O)N(Sc1ccc(Br)cc1)c1ccc(Cl)cc1)c1c(F)cccc1F` [Example 37], the “Toxicity Index S.l.” value [1] was 51, the “Toxicity Index A.a.” value (Aedes aegypti larvae) was 26 and the “Toxicity Index S.l.ov.” value [2] was 850.
In the case of `O=C(NC(=O)N(Sc1ccccc1[N+](=O)[O-])c1cc(Cl)c(Oc2ccc([N+](=O)[O-])cc2)c(Cl)c1)c1c(F)cccc1F` [Example 38], the “Toxicity Index S.l.” value [1] was 330, the “Toxicity Index A.a.” value (Aedes aegypti larvae) was 30 and the “Toxicity Index S.l.ov.” value [2] was 0.
